Assay type in all cases: cell-based, Choristoneura fumiferana
The subject of series [1] is GAL4:CfEcR-DEF/VP16:LmUSP-EF. Kind of series: Luciferase reporter gene induction in stably transfected CHO cells (pFRLuc). Particulars: stable clone 1A2, CHO cells, 0, 1, 5, or 25 μM ligand, 48 hours, maximum fold induction. From the text:
This Example describes the construction of host cells comprising the EcR/invertebrate RXR-based gene expression modulation system according to the invention. To make stable cells expressing GAL4:CfEcR-DEF/VP16:LmUSP-EF (switch 1.18, prepared as described in Example 1), Applicants transfected the gene expression cassettes encoding the hybrid GAL4:CfEcR-DEF and VP16:LmUSP-EF polypeptides into Chinese hamster ovary CHO cells comprising a stably transfected reporter plasmid pFRLuc. […] The cells were harvested and reporter activity was assayed.
The transfected CHO cells were grown in the presence of 0, 1, 5, or 25 μM PonA steroid ligand or GS™-E non-steroid ligand for 48 hours. The cells were harvested, lysed and the reporter activity was measured. Total fly luciferase relative light units (RLU) are presented. The numbers on the top of the bars correspond to the maximum fold induction for each treatment. Bulk populations of cells were selected for resistance to the antibiotic neomycin (VP16:LmUSP/VP16:RXR constructs have the neomycin resistance gene incorporated). Several clones from each population were isolated by end point dilution. Three clones of stably transfected GAL4:CfEcR-DEF/VP16:LmUSP-EF cells were analyzed (see FIG. 10, clone 1A2; the data related to the two other clones are not shown).
For orientation: A reporter such as luciferase makes a cellular process visible.

For series [2], the system named is CfEcR/LmUSP-based switch. Kind of series: Luciferase reporter induction by two-hybrid switches transfected into NIH3T3 cells. The following applies: non-steroid compared with steroid PonA, 0, 1, 5 or 25 μM, 48 hours. Here is the method: (§1) Transfections: DNAs corresponding to the various switch constructs outlined in Example 1, specifically switches 1.1 through 1.8, were transfected into mouse NIH3T3 cells (ATCC) as follows. […] For 12-well plates, 4 μl of Superfect™ was mixed with 100 μl of growth medium. […] The cells were harvested and reporter activity was assayed. […] Ligands: The steroidal ligand Ponasterone A (PonA) was purchased from Sigma Chemical Company. […] Reporter Assays: Cells were harvested 48 hours after adding ligands. […] Twenty μl of lysate were assayed. […] In addition, LmUSP worked better than vertebrate RXR as a CfEcR partner. In particular, both the sensitivity, i.e. the concentration of ligand required for transactivation, and the magnitude of transactivation were increased with LmUSP compared to vertebrate RXR. […]
Briefly, full-length EcR and truncated EcRs, created by a truncation mutation at the junctions of A/B, C, D, E and F domains and fused to a GAL4 DNA binding domain encoding polynucleotide (SEQ ID NO: 33) as described in Example 1 above. […] The cells were harvested, lysed and luciferase reporter activity was measured in the cell lysates. […] The analysis was performed in triplicate and mean luciferase counts [total relative light units (RLU)] were determined as described above.

Series [3] has as its system GAL4CfEcR-DEF/VP16LmUSP-EF (switch 1.18). Kind of series: Effect of a second ligand on transactivation of the gene switch with pFRLuc in NIH3T3 cells. Particulars: non-steroid ligand 1 μM or less, absence of 9-Cis-retinoic acid, 48 hours. As to the method:
as §1
In particular, Applicants have determined the effect of 9-cis-retinoic acid on the transactivation potential of the GAL4CfEcR-DEF/VP16LmUSP-EF (switch 1.18) gene switch along with pFRLuc in NIH3T3 cells in the presence of non-steroid (GSE) for 48 hours.
Briefly, GAL4CfEcR-DEF, pFRLuc and VP16LmUSP-EF were transfected into NIH3T3 cells and the transfected cells were treated with 0, 0.04, 0.2, 1, 5 and 25 μM non-steroidal ligand (GSE) and 0, 1, 5 and 25 μM 9-Cis-retinoic acid (Sigma Chemical Company). The reporter activity was measured at 48 hours after adding ligands.

The structures appear in SMILES notation.

In series [1], `CC(C)CC[C@@H](O)[C@](C)(O)[C@H]1CC[C@@]2(O)C3=CC(=O)[C@@H]4C[C@@H](O)[C@@H](O)C[C@]4(C)[C@H]3CC[C@]12C` [PonA, Ponasterone A] registered a fold induction of 42 fold.

Consider `CCc1c(OC)cccc1C(=O)NN(C(=O)c1cc(C)cc(C)c1)C(C)(C)C` [non-steroidal ligand, N-(2-ethyl-3-methoxybenzoyl)-N′-(3,5-dimethylbenzoyl)-N′-t-butylhydrazine], for which the “sensitivity of the switch to ligand” value in series [2] is “more sensitive”. For the same compound, the “induction of reporter activity” value in series [3] is “very little induction”. The fold induction in series [1] is given as 162 fold.

In general, fold induction refers to the signal under treatment as a multiple of the control signal. Low values mean a weak induction, high ones a strong induction.

These data come from patent publication US9493540B2, “Ecdysone receptor/invertebrate retinoid X receptor-based inducible gene expression system” (Intrexon Corporation, priority 2001, dated 2016).
